Results: PubChem BioAssay AID540269 (Sanford-Burnham Center for Chemical Genomics, 2011)
Activity calls are given as the source filed them. No rule for the calls is given here.

Molecular target: glucose-6-phosphate dehydrogenase-6-phosphogluconolactonase (Plasmodium falciparum 3D7)
Assay: PfG6PD enzyme inhibitors, kinetic NADPH readout, dose response, orthogonal assay, biochemical, kinetic NADPH detection (AID 540269)
Details: purified PfG6PD-6PGL

| SMILES | IC50 |
| --- | --- |
| CC(=O)Nc1cc([N+](=O)[O-])ccc1OCc1ccccc1 | > 80 µM (inactive) |
| COc1ccc(CN(C)S(=O)(=O)c2nnc(NC(=O)c3ccc(C)cc3)s2)cc1OC | 29.9 µM |
| C[C@H](NC(=O)c1cc2c(cn1)[nH]c1ccccc12)C(=O)O | > 80 µM (inactive) |
| CCOC(=O)c1sc(NC(=O)CSc2nnc(Cc3ccccc3)o2)c(C#N)c1C | > 80 µM (inactive) |
| CCN1CCN(C(=S)c2ccc(Cl)c(Cl)c2)CC1 | > 80 µM (inactive) |
| COc1cc(-c2cc(OC)c(O)c(OC)c2)cc(OC)c1O | > 80 µM (inactive) |
| Cc1c(C(=O)N(Cc2ccccc2Cl)C2CCS(=O)(=O)C2)oc2ccccc12 (stereo unspecified) | > 80 µM (inactive) |
| COc1ccc(S(=O)(=O)/N=C2\C=C(Nc3ccc(O)cc3)C(=O)c3ccccc32)cc1 | > 80 µM (inactive) |
| CC(=O)Nc1ccc2sn(-c3ccccc3)c(=O)c2c1 | 24.1 µM |
| O=C1C=CC2=C3c4cc(O)c(O)cc4CC3(O)COC2=C1O (stereo unspecified) | 37.8 µM |
| CCn1c(=O)n(CC)c2cc(N3CCCC3)c(NC(=O)c3cccc(C)c3)cc21 | > 80 µM (inactive) |
| O=C1Nc2cc(C(=O)NCCCN3CCCC3)ccc2S/C1=C\c1ccccc1 | 22.3 µM |
| CN(C)c1cccc2c1c(NC(=O)c1ccc(F)cc1)nn2C | > 80 µM (inactive) |
| Cc1ccc(/C=C/C(=O)N2CCN(S(=O)(=O)c3ccc(C)c(C)c3)CC2)o1 | > 80 µM (inactive) |
| Cc1ccc(NC(=O)c2cc(N3C(=O)C=CC3=O)ccc2N2CCOCC2)cc1 | > 80 µM (inactive) |
| C[C@H](NC(N)=O)C(=O)Nc1ccc(N2CCOCC2)c(S(=O)(=O)Nc2ccc(Cl)cc2)c1 | > 80 µM (inactive) |
| O=S(=O)(Nc1ccccc1F)c1cccc(NC(=S)NCCN2CCOCC2)c1 | 50.2 µM |
| Cc1ccc(/C=C/C(=O)NCc2ccc(S(N)(=O)=O)cc2)o1 | > 80 µM (inactive) |
| O=c1c2ccc(F)cc2sn1-c1ccccc1 | 15.4 µM |
| Cc1[nH]c(=S)c(C#N)c(C)c1CCC#N | > 80 µM (inactive) |
| O=C1Nc2cc(C(=O)NCCCN3CCCC3)ccc2S/C1=C/c1cccc(Cl)c1 | 34.2 µM |
| COc1ccc(CN(C)S(=O)(=O)c2nnc(NC(=O)c3cccc(C)c3)s2)cc1OC | 22.2 µM |
| Cc1ccc(C(=O)Nc2nnc(S(=O)(=O)N3CCC(C)CC3)s2)cc1 | 24.1 µM |
| COc1ccc(C(=O)ON=C2C=C(C)C(=O)C(C)=C2)cc1 | > 80 µM (inactive) |
| O=c1c2ccccc2sn1-c1ccc(Cl)cc1Cl | 12.9 µM |
| CN(C)c1ccc(/C=C/c2ccc3c4ccccc4ccc3[n+]2-c2ccccc2)cc1 | 44.3 µM |

| SMILES | IC50 |
| --- | --- |
| Cc1cc(C)c[n+](C2=C([O-])c3ccccc3C(=O)/C2=N\S(=O)(=O)c2cccs2)c1 | > 80 µM (inactive) |
| COc1cccc(-c2c(C(=O)N/N=C/c3ccc(C)s3)nnn2-c2nonc2N)c1 | 53.5 µM |
| COc1ccc2ccccc2c1C1CC(=O)N2CN(C3CCCCC3)CSC2=C1C#N (stereo unspecified) | > 80 µM (inactive) |
| COc1ccc(C(=O)c2c(C(F)(F)F)oc3c2C(=O)c2ccccc2C3=O)cc1OC | > 80 µM (inactive) |
| COC1(OC)C=CC(=O)C=C1NC(=O)c1ccccc1OC(C)=O | > 80 µM (inactive) |
| O=C(CCC(=O)Nc1ccccc1Cl)N/N=C/c1ccccc1 | > 80 µM (inactive) |
| O=c1c2cc(F)ccc2sn1-c1ccc(F)cc1 | 23.4 µM |
| COC1=CC(=O)C=C(OC)C1(O)CC(C)=O | > 80 µM (inactive) |
| Cc1cccc(C2(c3cccc(C)c3)CC2C(=O)Nc2ccc([N+](=O)[O-])cc2O)c1 (stereo unspecified) | > 80 µM (inactive) |
| CN(C)c1ccc(C=c2c3cc(O)ccc3n3c2cc(-c2ccccc2)[n+]3C)cc1 | > 80 µM (inactive) |
| CC(C)(C)c1ccc(C(=O)Nc2sc3c(c2C(=O)O)CCC3)cc1 | 12.7 µM |
| CCOC(=O)Nc1ccc(NCc2ccc(F)cc2)nc1N | > 80 µM (inactive) |
| CCOC(=O)c1c2ccc(OCC(=O)NN)cc2n2ccccc12 | 9.4 µM |
| CC1(OC(=O)C2CCCC2)C(=O)C=C2C=C(c3ccsc3)N(Cc3ccc4c(c3)OCO4)C=C2C1=O (stereo unspecified) | > 80 µM (inactive) |
| CCN1/C(=C/C=C/C=C/C=C/c2sc3ccccc3[n+]2CC)Sc2ccccc21 | > 80 µM (inactive) |
| Cc1ccc(NNS(=O)(=O)c2ccc(C)cc2)cc1 | 36.8 µM |
| NS(=O)(=O)c1ccc(-c2ccc(C=C3C(=O)NC(=O)NC3=O)o2)cc1 | 40.2 µM |
| Cc1cc(C)c2c(=O)n(CC(=O)Nc3cccc(F)c3)sc2n1 | 41.6 µM |
| [O-]/[N+](=C/c1cccnc1)c1ccc(Br)cc1 | 77.1 µM |
| Nc1cc(N)c(OCC(F)(F)F)cc1OCC(F)(F)F | > 80 µM (inactive) |
| Oc1cc(-n2cccn2)c(O)cc1-n1cccn1 | 68.8 µM |
| CC(CNc1ccccc1O)C(=O)O (stereo unspecified) | > 80 µM (inactive) |
| O=c1[nH]c2ccc(NCc3ccccc3OCc3ccc(Cl)cc3)cc2[nH]1 | > 80 µM (inactive) |
| CN1CCN(C(=S)c2ccc(Br)cc2)CC1 | > 80 µM (inactive) |
| Cc1ccsc1/C=N\NC(=O)CC(=O)NCc1ccccc1 | > 80 µM (inactive) |
| CC(=O)Nc1ccc2c(=O)n(-c3ccccc3)sc2c1 | 15.6 µM |

| SMILES | IC50 |
| --- | --- |
| CN=c1scc(C)n1/N=C/c1ccc(O)c(O)c1O | 24.8 µM |
| c1cncc(CNc2ccc3c(c2)OCO3)c1 | > 80 µM (inactive) |
| COc1cc(CN2CCN(CCCc3ccccc3)C(CCO)C2)cc(OC)c1O (stereo unspecified) | > 80 µM (inactive) |
| COc1cc(CNc2ccc3[nH]c(=O)[nH]c3c2)ccc1OCc1ccccc1 | > 80 µM (inactive) |
| COc1ccc(CCn2c(NN=C(C)C)nc3c2c(=O)[nH]c(=O)n3C)cc1 | > 80 µM (inactive) |
| Nc1ccc2c3c(cccc13)-c1ccccc1-2 | 41.3 µM |
| Cc1ccc(S(=O)c2ccc([N+](=O)[O-])c3nonc23)cc1 (stereo unspecified) | > 80 µM (inactive) |
| Cc1cc(O)c(-c2cc(O)c(C)cc2O)cc1O | 44.5 µM |
| Cc1ccc(/C=C/C(=O)NCC2COc3ccccc3O2)o1 (stereo unspecified) | > 80 µM (inactive) |
| CCC(c1ccc(O)c(O)c1)C(CC)c1ccc(O)c(O)c1 (stereo unspecified) | > 80 µM (inactive) |
| C(=N\Nc1nc2ccccc2[nH]1)/c1ccccn1 | > 80 µM (inactive) |
| COC1=C(OC)C(=O)C(Sc2ccc3ccccc3c2)=CC1=O | 23.3 µM |
| Cn1c(=O)[nH]c(=O)c2c1[nH]c(=S)n2CCCc1ccccc1 | 43.7 µM |
| Cc1[nH]c2ccccc2c1/C=N/Nc1nncn1N | > 80 µM (inactive) |
| Cc1ccc(NC2=C(NC(=O)c3ccccc3)C(=O)c3ccccc3C2=O)cc1Cl | > 80 µM (inactive) |
| CCOc1ccccc1NC(=O)CCCc1nc2ccccc2c(=O)[nH]1 | > 80 µM (inactive) |
| O=C(O)CSc1cc(NS(=O)(=O)c2cccc([N+](=O)[O-])c2)c2ccccc2c1O | > 80 µM (inactive) |
| COc1ccc(-n2c(=S)[nH]c3c(sc(=S)n3-c3ccccc3)c2=O)c(OC)c1 | > 80 µM (inactive) |
| Cc1cc(O)c(C(C)C)cc1N=Cc1ccc(N(C)C)cc1 | > 80 µM (inactive) |
| O=C(NCCCN1CCOCC1)c1sc2cc([N+](=O)[O-])ccc2c1Cl | 38.5 µM |
| O=C(Nc1nnc(S(=O)(=O)N2CCCCC2)s1)c1ccc(Cl)cc1 | 25.6 µM |
| COc1cc(NCc2ccccc2)c2ncn(Cc3ccccc3)c2c1 | > 80 µM (inactive) |
| O=C(CSc1nc2cc(Cl)ccc2s1)c1ccco1 | > 80 µM (inactive) |
| O=c1[nH]nc(CNc2ccc(O)cc2)c2ccccc12 | > 80 µM (inactive) |
